Measured values taken from the supplement of paper PMC10307832.

Experiments:
Assay in all cases: relative viability (nuclei count vs DMSO), 5 days (fraction); higher = more cells survive
[1] = compound: C1CSC2=C(C(=O)N1)SC3=C2C=C(C=C3)O [kb NB 142-70] + CS(=O)(=O)N1CCN(Cc2cc3nc(-c4cccc5[nH]ncc45)nc(N4CCOCC4)c3s2)CC1 [Pictilisib] (partner 1 µM)
Method in brief: (§1)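 The day after seeding in 1536-well plates, lung cancer cell lines were treated by pin tool with a single drug, or with a fixed anchor-drug dose together with five library-drug doses (not always all listed) in √10 steps. After 5 days, a combined fix-and-stain solution (final 0.05% Triton X-100, 1% formaldehyde, 1 ug/ml Hoechst) was added. Nuclei counted on 4× images gave relative viability as treated counts over vehicle counts, reported as the median of duplicate plates.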

[2] = compound: NCC(=O)Nc1ccc(-n2nc(C(F)(F)F)cc2-c2ccc3c(ccc4ccccc43)c2)cc1 + CS(=O)(=O)CCNCc1ccc(-c2ccc3ncnc(Nc4ccc(OCc5cccc(F)c5)c(Cl)c4)c3c2)o1 [Lapatinib] (partner 2 µM)
Method in brief: as §1

[3] = compound: NCC(=O)Nc1ccc(-n2nc(C(F)(F)F)cc2-c2ccc3c(ccc4ccccc43)c2)cc1 + N=C(N)NC(=N)NCCc1ccccc1 [Phenformin] (partner 250 µM)
Method in brief: as §1

[4] = compound: NCC(=O)Nc1ccc(-n2nc(C(F)(F)F)cc2-c2ccc3c(ccc4ccccc43)c2)cc1 + NC(=O)Nc1cc(-c2cccc(F)c2)sc1C(=O)N[C@H]1CCCNC1 [AZD7762] (partner 0.2 µM)
Method in brief: as §1

| Cell Line | relative viability ([1]; first compound 0.1 µM) | relative viability ([1]; first compound 1 µM) | relative viability ([1]; first compound 3.162 µM) | relative viability ([2]; first compound 0.02 µM) | relative viability ([2]; first compound 0.06325 µM) | relative viability ([2]; first compound 0.2 µM) | relative viability ([2]; first compound 0.6325 µM) | relative viability ([2]; first compound 2 µM) | relative viability ([3]; first compound 0.02 µM) | relative viability ([3]; first compound 0.06325 µM) | relative viability ([3]; first compound 0.6325 µM) | relative viability ([3]; first compound 2 µM) | relative viability ([4]; first compound 0.02 µM) | relative viability ([4]; first compound 0.06325 µM) | relative viability ([4]; first compound 0.6325 µM) | relative viability ([4]; first compound 2 µM) | relative viability ([3]; first compound 0.2 µM) | relative viability ([4]; first compound 0.2 µM) |
| --- | --- | --- | --- | --- | --- | --- | --- | --- | --- | --- | --- | --- | --- | --- | --- | --- | --- | --- |
| ABC-1 | 0.757 | 0.879 | 0.381 | 1.26 | 1.01 | 0.983 | 1.05 | 1.11 | 0.248 | 0.233 | 0.225 | 0.245 | 0.811 | 0.899 | 0.758 | 0.866 |  |  |
| NCI-H522 |  |  |  |  |  |  |  |  |  | 0.66 | 0.664 | 0.651 | 0.609 | 1.09 | 0.888 | 0.828 | 0.585 | 0.815 |
| NCI-H838 | 0.444 | 0.447 | 0.424 | 0.934 | 0.893 | 0.974 | 0.778 | 0.576 | 0.51 | 0.661 | 0.548 | 0.497 | 1.01 | 0.922 | 0.913 | 0.957 | 0.634 | 0.986 |
| SW 900 |  |  |  |  |  |  |  |  |  | 0.729 | 0.587 | 0.661 | 0.635 | 0.558 | 0.659 | 0.655 | 0.599 | 0.701 |
| A549 | 0.474 | 0.498 | 0.114 | 1.02 | 1.02 | 0.994 | 1.03 | 0.95 | 0.0913 | 0.168 | 0.198 | 0.17 |  |  |  |  | 0.0781 |  |
| A-427 | 0.816 | 0.753 | 0.748 | 1.08 | 1.11 | 1.14 | 1.04 | 1.11 |  | 0.411 | 0.334 | 0.352 | 0.757 | 0.719 | 0.693 | 0.786 | 0.315 | 0.854 |
| NCI-H1792 | 0.323 | 0.269 | 0.396 | 1 | 0.948 | 0.918 | 0.933 | 0.857 | 0.325 | 0.364 | 0.337 | 0.411 | 0.725 | 0.772 | 0.822 | 0.682 | 0.297 | 0.759 |
| NCI-H1703 | 0.249 | 0.286 | 0.255 | 1.03 | 1.09 | 1.41 | 0.964 | 1.04 |  |  |  |  | 0.127 |  | 0.124 | 0.142 |  | 0.122 |
| LCLC-103H | 0.631 | 0.652 | 0.638 |  |  |  |  |  | 0.344 | 0.331 | 0.327 | 0.315 | 0.796 | 0.79 | 0.812 | 0.818 | 0.332 | 0.752 |
| SK-LU-1 | 0.608 | 0.484 | 0.324 | 0.87 | 0.841 | 0.887 | 0.905 | 0.929 | 0.514 | 0.584 | 0.502 | 0.55 |  |  |  |  | 0.617 |  |
| ChaGo-K-1 | 0.894 | 0.807 | 0.523 |  |  |  |  |  | 0.438 | 0.495 | 0.522 | 0.519 | 0.81 | 0.869 | 0.913 | 0.897 | 0.443 | 0.807 |
| COR-L 105 | 0.376 | 0.392 | 0.37 | 0.418 | 0.33 | 0.401 | 0.39 | 0.437 | 0.408 | 0.517 | 0.539 | 0.492 |  |  |  |  | 0.5 |  |
| Calu-6 | 0.873 | 0.805 | 0.457 | 0.969 | 1.12 | 1.19 | 1.16 | 0.963 |  |  |  |  |  |  |  |  |  |  |
| NCI-H1648 |  |  |  |  |  |  |  |  |  |  |  |  | 0.893 | 0.598 | 0.663 | 0.588 |  | 0.74 |
| EBC-1 | 0.369 | 0.398 | 0.265 | 0.21 | 0.219 | 0.215 | 0.222 | 0.226 |  |  |  |  |  |  |  |  |  |  |
| NCI-H1299 | 0.802 | 0.889 | 0.32 | 0.987 | 0.943 | 1.02 | 0.952 | 0.972 |  |  |  |  |  |  |  |  |  |  |
| NCI-H2228 | 0.494 | 0.225 | 0.183 | 1.1 | 1.21 | 1.14 | 0.935 | 0.804 | 0.432 | 0.484 | 0.266 | 0.31 |  |  |  |  | 0.352 |  |
| NCI-H2342 |  |  |  |  |  |  |  |  | 0.685 | 0.582 | 0.515 | 0.537 | 0.666 | 0.633 | 0.449 | 0.558 | 0.733 | 0.502 |
| IA-LM | 0.412 | 0.529 | 0.51 | 0.802 | 0.823 | 0.757 | 0.85 | 0.717 |  |  |  |  |  |  |  |  |  |  |
| SK-MES-1 | 0.333 | 0.325 | 0.235 | 0.485 | 0.403 | 0.546 | 0.455 | 0.46 | 0.707 | 0.705 | 0.666 | 0.704 |  |  |  |  | 0.662 |  |
| SW 1573 | 0.49 | 0.337 | 0.26 | 1.17 | 1 | 1.17 | 0.978 | 1.08 | 0.394 | 0.356 | 0.401 | 0.366 |  |  |  |  | 0.383 |  |
| NCI-H441 | 0.497 | 0.429 | 0.305 |  |  |  |  |  | 0.898 | 0.819 | 1.01 | 0.844 | 1.12 | 1.1 | 1.06 | 1.12 | 0.954 | 1.32 |
| NCI-H661 | 0.496 | 0.343 | 0.351 | 0.526 | 0.521 | 0.44 | 0.445 | 0.556 | 0.267 | 0.259 | 0.295 | 0.27 |  |  |  |  | 0.268 |  |
| NCI-H520 | 0.297 | 0.282 | 0.165 | 0.995 | 0.869 | 0.935 | 0.938 | 0.963 | 0.574 | 0.628 | 0.625 | 0.618 |  |  |  |  | 0.641 |  |
| NCI-H2023 | 0.258 | 0.207 | 0.227 | 0.747 | 1.2 | 0.476 | 0.838 | 0.74 | 0.414 | 0.441 | 0.454 | 0.412 |  |  |  |  | 0.403 |  |
| NCI-H2009 | 0.857 | 0.814 | 0.564 | 0.872 | 0.948 | 0.868 | 0.935 | 0.958 | 0.459 | 0.503 | 0.479 | 0.525 |  |  |  |  | 0.482 |  |
